Measured values taken from article PMC11003481, “Synthesis, biological evaluation, and computational studies of N-benzyl pyridinium–curcumin derivatives as potent AChE inhibitors with antioxidant activity” (Journal of Enzyme Inhibition and Medicinal Chemistry, 2023).
Values joined by “and” are separate entries in the source; they are usually repeats but may differ in a detail not shown here. Identical values can stand only once.

How the values were obtained:
[1] = biological target: acetylcholinesterase (eeAChE, from Electrophorus electricus) (Electrophorus electricus, UniProt O42275); test: biochemical; settings: for Selectivity Index (SI) (AChE): Selectivity ratio [IC50(BChE)/IC50(AChE)]; for IC50: eeAChE, mean ± SEM of three independent experiments, duplicate samples, read-out: IC50 ± SEM AChE
Description: (§1) The AChE and BChE inhibitory activity assays were performed using a BioTek Epoch 2 microplate spectrophotometer in clear, flat-bottom 96-well plates. […] To each well, 295 µL phosphate buffer pH 8.0, 10 µL enzyme solution (AChE/BChE), and 10 µL target compound solutions were added together and allowed to stand for 4 min at room temperature. Then, 10 µL of 0.01 M solution freshly prepared Ellman’s reagent 5,5′-dithiobis(2-nitrobenzoic acid) (DTNB) was added to each well. The reaction in the wells was started by the addition of 2 µL of 0.075 M solution freshly prepared substrate (ATCh (acetylthiocholine iodide)/BTCh (S-butyrylthiocholine iodide)) solution. The solution was mixed immediately and incubated for 2:30 min for AChE or for 5 min for BChE inside the microplate reader at 26 °C. […] The IC50 values were calculated graphically by nonlinear regression analysis of inhibition curves that were obtained by plotting the logarithm of the inhibitor concentrations versus the percentage of inhibition (log(inhibitor) vs. normalised response) using GraphPad Prism 8 software (See Supplementary Information for details).

[2] = biological target: T1, butyrylcholinesterase (eqBChE, from equine serum) (Equus caballus, UniProt P81908); test: biochemical; settings: mean ± SEM of three independent experiments, duplicate samples, read-out: IC50 ± SEM BChE
T1 construct: butyrylcholinesterase (eqBChE, from equine serum); from tissue; host or cells: equine serum
Description: as §1

[3] = ABTS radical cation decolorisation antioxidant assay
Description: The antioxidant activity was determined using a radical cation (ABTS^.+) decolorisation assay, as described by Xiao et al.[21] with a few modifications. The assay used a BioTek Epoch 2 microplate spectrophotometer (Agilent, USA) with clear, flat-bottom 96-well plates. The 7 mmol/L ABTS^.+ stock solution was prepared by dissolving 96.02 mg ABTS in acetic acid buffer (pH 4.5) and to a final volume of 25 ml, which was kept in the dark at 0–4 °C. A 2.45 mmol/L potassium persulfate (K2S2O8) stock solution was prepared by dissolving 66.24 mg K2S2O8 in acetic acid buffer solution with pH 4.5, and then diluted to 100 ml and kept in the dark at 0–4 °C. The ABTS working solution was prepared by mixing similar quantities of 7 mmol/L ABTS and 2.45 mmol/L K2S2O8. This solution was stored in a dark cabinet for 16 h before use, when it was diluted with distilled water to obtain an absorbance of 0.70 at 734 nm. In a clear, flat-bottom 96-well plate, 200 μL of ABTS working solution and 10.0 μL sample solution at different concentrations (0.0312–0.5 mg/mL) were mixed well and incubated in the dark for 7 min before the absorbance was measured at 734 nm using a microplate reader. A blank was run for each assay, and all measurements were performed after 7 min. The ABTS scavenging capacity of inhibitors was compared with that of trolox and α-tocopherol. […]

eeAChE = eeAChE (Electrophorus electricus, UniProt O42275); test: biochemical; format: biochemical; settings: for Ki: from slopes of Lineweaver-Burk plots versus inhibitor concentration, substrate ATCh, read-out: Ki ± SEM eeAChE
Description: The slopes of the Lineweaver-Burk reciprocal plots against the concentrations of the compound (inhibitor) were plotted to obtain the Ki values for the prepared compounds (Table 1). The value at which the line intersects the x-axis is -Ki.
The assay was performed in triplicate using different inhibitor concentrations. […] The assay was carried out in clear, flat-bottom 96-well plates, to which 5 µL distilled water was added to all wells of columns 2–3, rows B-F. Then, 5 µL of the lowest concentration of inhibitor solution was added to the wells of columns 4–5, 5 µL of the median concentration of inhibitor solution was added to the wells of columns 6–7, and 5 µL of the highest concentration of inhibitor solution was added to the wells of columns 8–9. Next, 275 μL enzyme solution was added to the wells, and the plates were incubated for 4 min. Then, 10 μL 2.5 mM DTNB was added to the wells, followed by 10 μL of 32, 16, 8, 4, or 2 mM ATCh solutions to initiate the reactions. The plates were placed in a microplate reader for direct kinetic measurements.
The inhibition constant (Ki) for each inhibitor was calculated by averaging the ATCh hydrolysis rates from three independent experiments. Using GraphPad Prism 8 software, nonlinear regression was used to calculate the Km and Vmax values of the Michaelis-Menten kinetics by plotting [substrate] versus velocity. For the Lineweaver-Burk plots, linear regression was used to plot [1/ATCh] versus […]. Finally, the Ki values were obtained by plotting the slopes against [inhibitor] [20].

Sequence of eeAChE (O42275 24-633): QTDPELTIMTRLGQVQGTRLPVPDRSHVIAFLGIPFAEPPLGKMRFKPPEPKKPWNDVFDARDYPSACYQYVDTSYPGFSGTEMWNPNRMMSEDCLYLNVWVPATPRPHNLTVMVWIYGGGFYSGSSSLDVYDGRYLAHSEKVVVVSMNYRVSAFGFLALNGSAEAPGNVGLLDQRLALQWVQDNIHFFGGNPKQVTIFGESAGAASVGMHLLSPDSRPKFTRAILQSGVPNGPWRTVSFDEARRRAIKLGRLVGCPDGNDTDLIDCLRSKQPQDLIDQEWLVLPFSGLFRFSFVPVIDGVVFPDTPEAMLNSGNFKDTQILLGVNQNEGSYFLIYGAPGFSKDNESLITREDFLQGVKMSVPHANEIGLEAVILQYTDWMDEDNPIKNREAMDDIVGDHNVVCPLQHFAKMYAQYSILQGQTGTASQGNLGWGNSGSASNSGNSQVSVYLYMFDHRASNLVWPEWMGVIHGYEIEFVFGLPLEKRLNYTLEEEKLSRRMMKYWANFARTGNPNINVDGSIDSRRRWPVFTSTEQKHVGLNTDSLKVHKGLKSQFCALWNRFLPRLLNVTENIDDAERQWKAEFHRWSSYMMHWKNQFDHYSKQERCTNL
Sequence of acetylcholinesterase (eeAChE, from Electrophorus electricus) (O42275 24-633): as above
T1 sequence (P81908 whole entry): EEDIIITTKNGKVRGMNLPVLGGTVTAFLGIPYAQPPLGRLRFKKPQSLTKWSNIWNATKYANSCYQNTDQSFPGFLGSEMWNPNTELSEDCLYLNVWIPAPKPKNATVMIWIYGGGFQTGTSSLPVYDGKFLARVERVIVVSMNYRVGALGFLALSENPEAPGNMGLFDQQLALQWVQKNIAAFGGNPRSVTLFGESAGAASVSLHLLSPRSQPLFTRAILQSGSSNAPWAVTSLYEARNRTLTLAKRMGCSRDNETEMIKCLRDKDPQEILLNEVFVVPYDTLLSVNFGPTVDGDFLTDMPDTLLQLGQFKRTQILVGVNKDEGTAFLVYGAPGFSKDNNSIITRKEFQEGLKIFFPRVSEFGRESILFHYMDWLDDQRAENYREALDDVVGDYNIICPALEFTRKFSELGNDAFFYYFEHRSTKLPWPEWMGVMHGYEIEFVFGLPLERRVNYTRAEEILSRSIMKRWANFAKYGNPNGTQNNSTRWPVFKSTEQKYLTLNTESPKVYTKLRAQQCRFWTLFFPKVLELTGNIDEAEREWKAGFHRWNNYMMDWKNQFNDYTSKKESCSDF

Row | Compound | Selectivity Index (SI) (AChE) [1] | IC50 [1] | IC50 [2] [µM] | ABTS Inhibition % ([3]; 0.0312 mg/mL) [%] | ABTS Inhibition % ([3]; 0.0625 mg/mL) [%] | ABTS Inhibition % ([3]; 0.125 mg/mL) [%] | ABTS Inhibition % ([3]; 0.25 mg/mL) [%] | ABTS Inhibition % ([3]; 0.5 mg/mL) [%] | Ki (eeAChE) [µM] | Type of AChE inhibition (Lineweaver-Burk pattern) (eeAChE; slopes and intercepts increased with inhibitor concentration)
1 | O=C(/C=C/c1ccccc1)/C=C/c1cc[n+](Cc2ccc([N+](=O)[O-])cc2)cc1 [Compound 7e, 1–(4-Nitrobenzyl)-4-(1E,4E)-3-oxo-5-phenylpenta-1,4-dien-1-yl)pyridin-1-ium bromide] | 5 | 0.8 ± 0.00012 µM | 3.9 ± 0.052 | – | – | – | – | – | – | –
2 | Cc1ccc(C[n+]2cccc(/C=C/C(=O)/C=C/c3ccccc3)c2)cc1 [Compound 8d, 1–(4-Methylbenzyl)-3-(1E,4E)-3-oxo-5-phenylpenta-1,4-dien-1-yl)pyridin-1-ium bromide] | 4 | 0.63 ± 0.0002 µM | 2.5 ± 0.079 | – | – | – | – | – | – | –
3 | Cc1c(C)c2c(c(C)c1O)CCC(C)(C(=O)O)O2 (stereo not shown) [Trolox, reference compound] | – | – | – | 9.3 ± 1.2 | 24.7 ± 1.2 | 51.0 ± 2.3 | 91.5 ± 1.8 | 93.9 ± 0.1 | – | –
4 | COc1cc(/C=C/C(=O)/C=C/c2ccc[n+](Cc3ccc(Br)cc3)c2)ccc1O [Compound 8h, 1–(4-Bromobenzyl)-3-(1E,4E)-5–(4-hydroxy-3-methoxyphenyl)-3-oxopenta-1,4-dien-1-yl)pyridin-1-ium bromide] | 3 | 0.63 ± 0.00022 µM | 1.8 ± 0.121 | – | – | – | – | – | – | –
5 | O=C(/C=C/c1ccccc1)/C=C/c1ccc[n+](Cc2ccc(Br)cc2)c1 [Compound 8c, 1–(4-Bromobenzyl)-3-(1E,4E)-3-oxo-5-phenylpenta-1,4-dien-1-yl)pyridin-1-ium bromide] | 1 | 1.16 ± 0.00017 µM | – | – | – | – | – | – | – | –
6 | COc1cc(/C=C/C(=O)/C=C/c2cc[n+](Cc3ccc(Br)cc3)cc2)ccc1O [Compound 7h, 1–(4-Bromobenzyl)-4-(1E,4E)-5–(4-hydroxy-3-methoxyphenyl)-3-oxopenta-1,4-dien-1-yl)pyridin-1-ium bromide] | 10 | 0.71 ± 0.00016 µM | 6.36 ± 0.106 | – | – | – | – | – | – | –
7 | COc1cc(/C=C/C(=O)/C=C/c2cc[n+](Cc3ccccc3)cc2)ccc1O [Compound 7f, 1-Benzyl-4-(1E,4E)-5–(4-hydroxy-3-methoxyphenyl)-3-oxopenta-1,4-dien-1-yl)pyridin-1-ium bromide] | 55 | 0.0075 µM | – | 5.9 ± 0.47 | 13.7 ± 0.50 | 23.7 ± 0.51 | 35.5 ± 0.93 | 55.3 ± 1.42 | 0.006 ± 3.6e-05 | –
8 | Cc1ccc(C[n+]2ccc(/C=C/C(=O)/C=C/c3ccccc3)cc2)cc1 [Compound 7d, 1–(4-Methylbenzyl)-4-(1E,4E)-3-oxo-5-phenylpenta-1,4-dien-1-yl)pyridin-1-ium bromide] | 4 | 1.12 ± 0.00014 µM | 4.5 ± 0.073 | – | – | – | – | – | – | –
9 | O=C(/C=C/c1ccccc1)/C=C/c1ccc[n+](Cc2ccc([N+](=O)[O-])cc2)c1 [Compound 8e, 1–(4-Nitrobenzyl)-3-(1E,4E)-3-oxo-5-phenylpenta-1,4-dien-1-yl)pyridin-1-ium bromide] | 2 | – | 2.7 ± 0.063 | – | – | – | – | – | – | –
10 | O=C(/C=C/c1ccccc1)/C=C/c1ccc[n+](Cc2ccccc2)c1 [Compound 8a, 1-Benzyl-3-(1E,4E)-3-oxo-5-phenylpenta-1,4-dien-1-yl)pyridin-1-ium bromide] | 14 | ≤ 0.056 µM and 0.056 µM | – | 0.0 ± 0.70 | 0.3 ± 0.28 | 0.4 ± 0.36 | 1.4 ± 0.49 | 2.6 ± 0.38 | 0.102 ± 8e-06 | –
11 | COc1cc(/C=C/C(=O)/C=C/c2ccc[n+](Cc3ccc(C)cc3)c2)ccc1O [Compound 8i, 3-(1E,4E)-5–(4-Hydroxy-3-methoxyphenyl)-3-oxopenta-1,4-dien-1-yl)-1–(4-methylbenzyl)pyridin-1-ium bromide] | 11 | 0.27 ± 0.021 µM | 2.5 ± 0.1 | – | – | – | – | – | – | –
12 | COc1cc(/C=C/C(=O)/C=C/c2ccc[n+](Cc3ccc([N+](=O)[O-])cc3)c2)ccc1O [Compound 8j, 3-(1E,4E)-5–(4-Hydroxy-3-methoxyphenyl)-3-oxopenta-1,4-dien-1-yl)-1–(4-nitrobenzyl)pyridin-1-ium bromide] | – | 0.66 ± 0.00021 µM | 9.8 ± 0.09 | – | – | – | – | – | – | –
13 | Cc1c(C)c2c(c(C)c1O)CC[C@@](C)(CCC[C@H](C)CCC[C@H](C)CCCC(C)C)O2 [α-tocopherol, reference compound] | – | – | – | 6.9 ± 2.3 | 15.9 ± 1.0 | 29.7 ± 1.3 | 56.4 ± 0.72 | 90.2 ± 0.04 | – | –
14 | O=C(/C=C/c1ccccc1)/C=C/c1cc[n+](Cc2ccccc2)cc1 [Compound 7a, 1-Benzyl-4-(1E,4E)-3-oxo-5-phenylpenta-1,4-dien-1-yl)pyridin-1-ium bromide] | 19 | 0.032 ± 0.00022 µM | – | 1.4 ± 0.56 | 1.5 ± 0.30 | 1.7 ± 0.68 | 3.5 ± 0.72 | 6.4 ± 0.47 | 0.039 ± 1.1e-05 | mixed-type inhibition
15 | COc1cc(/C=C/C(=O)/C=C/c2cc[n+](Cc3ccc([N+](=O)[O-])cc3)cc2)ccc1O [Compound 7j, 4-(1E,4E)-5–(4-Hydroxy-3-methoxyphenyl)-3-oxopenta-1,4-dien-1-yl)-1–(4-nitrobenzyl)pyridin-1-ium bromide] | – | 0.23 ± 0.00019 µM | 1.4 ± 0.083 | – | – | – | – | – | – | –
16 | COc1cc(/C=C/C(=O)/C=C/c2cc[n+](Cc3ccc(C)cc3)cc2)ccc1O [Compound 7i, 4-(1E,4E)-5–(4-Hydroxy-3-methoxyphenyl)-3-oxopenta-1,4-dien-1-yl)-1–(4-methylbenzyl)pyridin-1-ium bromide] | 3 | 0.22 ± 0.00017 µM | – | – | – | – | – | – | – | –
17 | O=C(/C=C/c1ccccc1)/C=C/c1ccc[n+](Cc2ccc(F)cc2)c1 [Compound 8b, 1–(4-Fluorobenzyl)-3-(1E,4E)-3-oxo-5-phenylpenta-1,4-dien-1-yl)pyridin-1-ium bromide] | 7 | ≤ 0.056 µM and 0.054 µM | – | 0.2 ± 0.40 | 0.3 ± 0.22 | 1.0 ± 0.52 | 2.3 ± 0.64 | 5.1 ± 0.62 | 0.09 ± 1.2e-05 | –
18 | O=C(/C=C/c1ccccc1)/C=C/c1cc[n+](Cc2ccc(Br)cc2)cc1 [Compound 7c, 1–(4-Bromobenzyl)-4-(1E,4E)-3-oxo-5-phenylpenta-1,4-dien-1-yl)pyridin-1-ium bromide] | 3 | 0.28 ± 0.0002 µM | – | – | – | – | – | – | – | –
